Experimental findings from patent publication US7807712B2, “Oxy substituted chalcones as antihyperglycemic and antidyslipidemic agents” (priority 2004, dated 2010) are described below.

One assay has as its system db/db mice. The assay can be described thus: Antihyperglycemic activity in db/db mice. Type of assay: in vivo, mouse (C57BL/KsBom-db). The note with it: for % Fall in blood glucose levels 6 days / % Fall in blood glucose levels 10 days: db/db mice; for % Fall in blood glucose levels 6 days: day 6 postprandial protocol; for % Fall in blood glucose levels 10 days: day 10 OGTT, glucose 3 gm/kg. The source says:
The db/db mouse is a well-characterized model of […]. The background for the db/db mouse is the C57BL/Ks strain. The major deficiency of the C57BL/KsBom-db mouse (db/db) is lack of a functional leptin receptor. This leads to defective leptin signaling and a complete lack of feedback from leptin. […] The db/db mouse develops NIDDM from around week 10. The disease is stable until week 20, where destruction of pancreatic β-cells can be recognized clinically as decreasing levels of plasma insulin and very severe hyperglycemia. The male mice are more diabetic than female and will normally die earlier. The advantage of using male mice for experimental purposes is that the fluctuations in plasma parameters are less than in the females where the estrogen cycle affects the clinical diabetes mellitus. The optimal age of db/db mice used for experiments will be from week 12 to 18 when they have developed NIDDM with diabetic dyslipidemia but still have functional β-cells in the pancreas. C57BL/KsBom-db mice 12-18 weeks, 40-50 g bred in the animal house of CDRI, Lucknow. 10 male mice were used in the experiments. The mice were housed in groups of 5 individuals in a room controlled for temperature (23±2° C.) and 12/12 hours light/dark cycle (lights on at 6.00 am). Body weight was measured daily from day 1 to day 10. All animals had free access to fresh water and to normal chow except on the days of the postprandial protocol day 6 and during the overnight fast before the OGTT on day 10. Blood glucose was checked every morning up till day 5. On day 6 postprandial protocol was employed, in this method blood glucose was checked at −0.30 min and 0 h. Test compounds were given to the treatment group whereas control group received only gum acacia (1.0%); the blood glucose was again checked at 1, 2, 3, 4 and 6 h post test compound treatment. Finally on day 10 an oral glucose tolerance test (OGTT) was performed after an overnight fasting. Blood glucose was measured at −0.30 min and test drugs were fed, blood glucose was again measured at 0.0 min post treatment, at this juncture glucose solution was given at a dose of 3 gm/kg to all the groups including control group; the profile of blood glucose was checked at 30 min, 60 min, 90 min and 120 min post glucose administration. Quantitative glucose tolerance of each animal was calculated by Area Under Curve (AUC) method (Prism Software). Comparing the AUC of experimental and control groups determined the percentage antihyperglycemic activity. Statistical comparison was made by Dunnett's test.

Another assay concerns sucrose loaded rats. The assay can be described thus: Sucrose loaded rat model (SLM), antihyperglycemic activity. Type of assay: in vivo, rat (Charles Foster/Wistar). As to conditions: for inhibition in vivo at 100 mg/kg: Rattus norvegicus, 2 h, 100 mg/kg oral, sucrose load 10.0 g/kg, AUC vs control, 30-120 min, read-out: % Fall in blood glucose levels SLM; for activity in SLM model: summary statement. The procedure: Male albino rats of Charles Foster/Wistar strain of average body weight 160±20 g were selected for this study. The blood glucose level of each animal was checked by glucometer using glucostrips (Boehringer Mannheim) after 16 h starvation. Animals showing blood glucose levels between 3.33 to 4.44 mM (60 to 80 mg/dl) were divided into groups of five to six animals in each. Animals of experimental group were administered suspension of the desired synthetic compound orally (made in 1.0% gum acacia) at a dose of 100-mg/kg-body weight. Animals of control group were given an equal amount of 1.0% gum acacia. A sucrose load (10.0 g/kg) was given to each animal orally exactly after 30 min post administration of the test sample/vehicle. Blood glucose profile of each rat was again determined at 30, 60, 90 and 120 min post administration of sucrose by glucometer. Food but not water was withheld from the cages during the course of experimentation. Quantitative glucose tolerance of each animal was calculated by Area Under Curve (AUC) method (Prism Software). Comparing the AUC of experimental and control groups determined the percentage antihyperglycemic activity. Statistical comparison was made by Dunnett's test.

Assay [1] relates to triton WR-1339 induced hyperlipidemic rats. The assay can be described thus: Triton model, antidyslipidemic activity. Type of assay: in vivo, rat (Charles foster). The note with it: Rattus norvegicus, 100 mg/kg oral. The procedure: Male Charles foster rats weighing 200-225 g were divided into control, hyperlipidemic and hyperlipidemic plus drug treated groups containing six animals in each group. Hyperlipidemia was induced by administration of triton WR-1339 (200 mg/kg i.p.). All animals were maintained on a special pellet diet and water ad libitum. Compounds and standard drug were macerated with 0.2% aqueous gum acacia suspension. The suspension was fed orally at the dose of 100 mg/kg simultaneously with triton in drug treated group. The animals of control group received the same amount of gum acacia by similar route of administration. At the end of the experiment, after 18 h, blood was withdrawn from retro orbital plexus and plasma was used for the assay of total cholesterol, phospholipid and triglycerides.
Cholesterol was estimated using the kit provided by Roche Diagnostics. Cholesterol esters are enzymatically hydrolyzed by cholesterol esterase (CE) to cholesterol and free fatty acids. Free cholesterol, including that originally present, is then oxidized by cholesterol oxidase (CO) to cholest-4-en-3-one and hydrogen peroxide. The hydrogen peroxide combines with hydroxy benzoic acid (HBA) and 4-aminoantipyrine (4AAA) in the presence of peroxidase (POD) to form a chromophore (quinoneimine dye), which may be quantitated at 500-505 nm. The intensity of red colour formed is directly proportional to the concentration of total cholesterol in the specimen and measured spectrophotometrically (Searcy, C. L. Diagnostic Biochemistry, 1969, McGraw Hill, New York; Ellefson, R. D.; Caraway, W. T. Fundamentals of clinical chemistry, 1976, Ed Tietz N W, 506-515.)
Triglycerides were estimated using the kit provided by Roche Diagnostics. Lipoprotein lipase hydrolyses triglycerides to yield glycerol and fatty acids. Glycerol kinase converts glycerol to glycerol-3-phosphate, which is oxidized by glycerol phosphate oxidase to dihydroxy acetone phosphate and hydrogen peroxide. In the presence of peroxidase, hydrogen peroxide oxidatively couples with 4-aminoantipyrine and 4-chloro phenol to produce red quinonimine dye. The intensity of red colour formed is directly proportional to the concentration of triglycerides in the specimen and is measured by photometrically (Wahlefeld, A. W.; Bergmeyer, H. U. Ed. Methods of enzymatic analysis, 2nd English edition, New York, N.Y., Academic press inc, 1831-1840.).
Serum (0.2 mL) and perchloric acid (1.0 mL) was digested at 180° C. for 1-1.5 h till the solution became colorless. The liberated inorganic phosphate (Pi) was measured by the method of Fiske and Subbarow (Fiske, C. H.; Subbarow, V. J. Biol. Chem. 1925, 66, 375.). 1 mL of 2.5% ammonium molybdate (prepared in 5 N sulphuric acid) and 0.5 mL reducing agent (4-amino naphthol sulphonic acid, 0.2%), sodium metabisulphite (2.4% w/v in distilled water) was added to the above tubes and mixed well. The reaction mixture was […] with 2.5 mL of triple distilled water and kept at 60° C. in water bath for 20 min. For standard, an appropriate amount of potassium dihydrogen phosphate dissolved in triple distilled water containing 2-10 μg phosphorus (Pi) was run simultaneously with the experiment tubes. The optical density of the blue colour was recorded at 620 nm against reagent blank. The values of Pi were converted into phospholipid by multiplying with 25 (a constant calibrated from Pi value of lecithin).

Setting [2] is: plasma phospholipid after 18 h, read-out: % Fall in lipid levels (Triton model) PL.
[3] abbreviates: plasma total cholesterol after 18 h, read-out: % Fall in lipid levels (Triton model) TC.
[4] abbreviates: plasma triglycerides after 18 h, read-out: % Fall in lipid levels (Triton model) TG.

Structures are written as SMILES. Like-named read-outs stand apart in the source and are kept apart here.

Regarding `COc1ccc(/C=C/C(=O)c2ccc(OCC(O)CN3CCN(c4ccccc4)CC3)cc2)cc1OC` (stereo not drawn) [Compound 18, 3,4-Dimethoxy-4′-[2-hydroxy-3-(4-phenylpiperazin-1-yl)-propoxy]-chalcone], the “% Fall in blood glucose levels 6 days” value with db/db mice is 29.9%. Further, the “% Fall in blood glucose levels 10 days” value with db/db mice worked out at 18.9%. Moreover, the inhibition in vivo at 100 mg/kg in the assay with sucrose loaded rats was 15.4%; in assay [1] (setting [2]), 8%; in assay [1] (setting [3]), 20%; in assay [1] (setting [4]), 12%. Also, the “activity in SLM model” value with sucrose loaded rats is recorded as “significant results”.
For the compound `CC(C)(C)NCC(O)COc1ccc(C(=O)/C=C/c2ccc3c(c2)OCO3)cc1` (stereo not drawn) [Compound 34, 4′-[^3-tert-Butylamino-2-hydroxy-propoxy]-3,4-methylenedioxy-chalcone], in the assay on db/db mice, the “% Fall in blood glucose levels 6 days” value is listed as “NIL”. For the same compound, the “% Fall in blood glucose levels 10 days” value with db/db mice worked out at 32.0%. Moreover, the inhibition in vivo at 100 mg/kg in the assay on sucrose loaded rats is 21.1%; in assay [1] (setting [2]), 20%; in assay [1] (setting [3]), 26%; in assay [1] (setting [4]) it was 18%. Moreover, the “activity in SLM model” value in the assay on sucrose loaded rats is recorded as “significant results”.
For the compound `O=C1NC(=O)/C(=C\c2ccc(OCCCCCOc3cccc(C(=O)/C=C/c4ccc5c(c4)OCO5)c3)cc2)S1` [Compound 46, 3,4-Methylenedioxy-3′-{5-[4-(thiazolidin-2,4-dione-5-ylidinemethyl)-phenoxy]-pentyloxy}-chalcone], the “% Fall in blood glucose levels 6 days” value in the assay on db/db mice is on record as 1.76%. In addition, the “% Fall in blood glucose levels 10 days” value in the assay with db/db mice is 23.1%. The “lowering of blood glucose in db/db mice” value in the assay with db/db mice (summary statement) is listed as “significant lowering of blood glucose”. Further, the inhibition in vivo at 100 mg/kg with sucrose loaded rats was 13.4%; in assay [1] (setting [2]), 20%; in assay [1] (setting [3]) it was 13%; in assay [1] (setting [4]), 20%.
